ChEMBL document CHEMBL1201862, “PubChem BioAssay data set” (2004)
pIC50: −log10 of the molar value. Activity calls are given as the source filed them.

Experiments:
[1] = target: Beta-galactosidase (Escherichia coli, UniProt Q8VNN2); format: functional
[2] = target: T1, Protein RecA (Mycobacterium tuberculosis, UniProt P9WHJ3); assay: Fluorescence Cell-Free Homogeneous Dose Retest to Identify Inhibitors of RecA-Intein Splicing Activity. [Related pubchem assays (depositor defined):AID2097, AID2223, AID489010, AID492950]; format: functional
T1 sequence (P9WHJ3 whole entry): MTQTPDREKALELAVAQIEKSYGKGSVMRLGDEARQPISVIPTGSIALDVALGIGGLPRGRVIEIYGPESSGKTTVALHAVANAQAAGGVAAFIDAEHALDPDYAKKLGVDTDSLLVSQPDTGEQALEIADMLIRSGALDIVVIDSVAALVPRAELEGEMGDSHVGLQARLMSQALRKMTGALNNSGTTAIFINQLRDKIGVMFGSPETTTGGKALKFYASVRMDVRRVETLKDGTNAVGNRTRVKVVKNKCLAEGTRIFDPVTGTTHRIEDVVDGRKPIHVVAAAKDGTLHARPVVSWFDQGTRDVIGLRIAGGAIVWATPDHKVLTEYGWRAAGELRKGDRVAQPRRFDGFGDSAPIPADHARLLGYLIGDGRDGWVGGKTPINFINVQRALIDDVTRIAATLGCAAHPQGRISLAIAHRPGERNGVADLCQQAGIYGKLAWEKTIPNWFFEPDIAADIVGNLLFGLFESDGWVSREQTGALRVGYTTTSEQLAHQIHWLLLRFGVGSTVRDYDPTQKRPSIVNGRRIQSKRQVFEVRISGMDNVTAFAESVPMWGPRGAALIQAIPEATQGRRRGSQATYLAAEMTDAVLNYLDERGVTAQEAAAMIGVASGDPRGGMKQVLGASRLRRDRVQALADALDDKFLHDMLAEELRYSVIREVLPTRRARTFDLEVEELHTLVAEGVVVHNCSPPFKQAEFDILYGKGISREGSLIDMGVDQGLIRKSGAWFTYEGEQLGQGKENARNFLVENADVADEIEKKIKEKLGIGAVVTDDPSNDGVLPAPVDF

[3] = target: T2, Delta-type opioid receptor (Homo sapiens, UniProt P41143); assay: HTS Image-Based Screen for Antagonists of the DOR Receptor. [Related pubchem assays (depositor defined):AID1777, AID1785, AID1786, AID2133]; format: functional
[4] = target: T3, Replicative DNA helicase DnaB (Mycobacterium tuberculosis, UniProt P9WMR3); assay: DnaB intein splicing inhibitors, dose response, biochemical, cell-free fluorescence (AID 449749); format: functional
T3 sequence (P9WMR3 whole entry): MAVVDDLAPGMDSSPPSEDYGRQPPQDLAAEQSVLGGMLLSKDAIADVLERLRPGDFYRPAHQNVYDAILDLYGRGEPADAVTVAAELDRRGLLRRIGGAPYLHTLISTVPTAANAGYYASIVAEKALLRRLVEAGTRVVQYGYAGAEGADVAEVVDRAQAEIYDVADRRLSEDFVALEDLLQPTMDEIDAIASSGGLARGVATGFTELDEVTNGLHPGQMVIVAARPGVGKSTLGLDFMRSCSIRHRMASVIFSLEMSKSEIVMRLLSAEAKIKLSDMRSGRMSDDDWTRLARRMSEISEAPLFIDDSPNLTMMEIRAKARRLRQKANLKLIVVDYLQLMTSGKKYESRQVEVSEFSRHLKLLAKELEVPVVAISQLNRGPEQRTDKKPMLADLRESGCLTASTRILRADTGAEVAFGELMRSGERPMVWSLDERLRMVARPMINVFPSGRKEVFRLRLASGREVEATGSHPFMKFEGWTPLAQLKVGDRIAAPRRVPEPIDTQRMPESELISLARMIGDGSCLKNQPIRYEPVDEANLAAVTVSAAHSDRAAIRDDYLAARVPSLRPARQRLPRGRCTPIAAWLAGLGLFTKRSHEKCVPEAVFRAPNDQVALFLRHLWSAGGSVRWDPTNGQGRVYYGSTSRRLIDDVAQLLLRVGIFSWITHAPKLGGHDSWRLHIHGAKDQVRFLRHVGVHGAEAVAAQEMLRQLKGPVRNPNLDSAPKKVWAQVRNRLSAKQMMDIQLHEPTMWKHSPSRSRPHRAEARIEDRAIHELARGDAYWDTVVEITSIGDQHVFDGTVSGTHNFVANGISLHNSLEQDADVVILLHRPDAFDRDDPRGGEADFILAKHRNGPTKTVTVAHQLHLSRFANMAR

[5] = target: Mu-type opioid receptor (Homo sapiens, UniProt P35372); assay: HTS Image-Based Screen for Agonists of the MOR Receptor. [Related pubchem assays (depositor defined):AID1777, AID1785, AID1786, AID2133]; format: functional;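 note: imaging of beta-arrestin GFP recruitment into spots after receptor activation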
[6] = target: T4, Kappa-type opioid receptor (Homo sapiens, UniProt P41145); format: functional
[7] = target: T2, Delta-type opioid receptor; assay: HTS Image-Based Screen for Agonists of the DOR Receptor. [Related pubchem assays (depositor defined):AID1777, AID1786, AID2133]; format: functional
[8] = target: T4, Kappa-type opioid receptor; format: functional; remark: listed apart in the source
[9] = target: CAAX prenyl protease 2 (Saccharomyces cerevisiae S288c, UniProt Q03530); format: biochemical
[10] = toxicity toward cultured mammalian cells – cell-based, plate reader, cherry-pick samples, cytotoxicity control, dose response (AID 504397); format: functional
[11] = target: T5, G-protein coupled receptor 35 (Homo sapiens, UniProt Q9HC97); assay: SAR analysis of Agonists of the GPR35 Receptor using an Image-Based Assay - Set 2. [Related pubchem assays (depositor defined):AID2013, AID2026]; format: functional
[12] = HIV-1 AD8 envelope cell-cell fusion blockers – cherry-pick, dose response (AID 652062); format: functional, cell-based;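 note: luciferase signal from cell-cell fusion driven by HIV-1 clade B AD8 Env; potency is for inhibitors of fusion seen as a drop in luminescence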
[13] = blockers of HIV-1 ZM109 envelope-driven cell-cell fusion – HeLa effector, CEM target cells, luciferase, cherry-pick, dose response (AID 652058); format: functional, cell-based;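 note: luciferase signal from HIV-1 Env mediated cell-cell fusion of effector and target cells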
[14] = target: T6, Cannabinoid receptor 2 (Homo sapiens, UniProt P34972); assay: SAR analysis of agonists of the Cannabinoid Receptor 2 using an Image-Based Assay. [Related pubchem assays (depositor defined):AID2013, AID2026]; format: functional
[15] = blockers of HIV-1 envelope-mediated cell-cell fusion – cherry-pick, dose response (AID 652057); format: functional, cell-based
[16] = target: T6, Cannabinoid receptor 2; assay: SAR analysis of antagonists of the Cannabinoid Receptor 2 using an Image-Based Assay. [Related pubchem assays (depositor defined):AID2013, AID2026]; format: functional
[17] = target: T7, G-protein coupled receptor 55 (Homo sapiens, UniProt Q9Y2T6); assay: inhibition of LPI-stimulated GPR55 beta-arrestin translocation – imaging, U2OS, beta-arrestin-GFP, LPI agonist, primary screen (AID 2013); format: functional;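 note: antagonist potency measured as reduced agonist-driven arrestin aggregation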
[18] = target: T8, X-box-binding protein 1 (Homo sapiens, UniProt P17861); format: functional, Cricetulus griseus;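 note: confirmatory dose-response counter-screen serving a CHOP assay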
T8 sequence (P17861 whole entry): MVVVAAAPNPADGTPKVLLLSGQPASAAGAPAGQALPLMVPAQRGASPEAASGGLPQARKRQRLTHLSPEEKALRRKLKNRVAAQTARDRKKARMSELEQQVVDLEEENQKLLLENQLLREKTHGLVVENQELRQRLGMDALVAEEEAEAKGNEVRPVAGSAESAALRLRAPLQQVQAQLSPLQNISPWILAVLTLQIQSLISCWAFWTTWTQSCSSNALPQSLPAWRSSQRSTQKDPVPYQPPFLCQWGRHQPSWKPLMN

[19] = viability loss in CEM21 cells – cell-based, CellTiter-Glo luminescence, cherry-picked, cytotoxicity control for viral fusion inhibitor project, dose response (AID 652042); format: functional;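 note: potency for signal decrease meaning cytotoxicity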
[20] = target: T7, G-protein coupled receptor 55; assay: blockade of LPI-induced GPR55 arrestin translocation – imaging, U2OS, beta-arrestin-GFP, LPI agonist, set 2, SAR follow-up (AID 2820); format: functional
[21] = target: T5, G-protein coupled receptor 35; assay: SAR analysis of Antagonists of the GPR35 Receptor using an Image-Based Assay - Set 3. [Related pubchem assays (depositor defined):AID2013, AID2026]; format: functional
[22] = target: T9, Cannabinoid receptor 1 (Homo sapiens, UniProt P21554); assay: SAR analysis of antagonists of the Cannabinoid Receptor 1 using an Image-Based Assay - Set 2. [Related pubchem assays (depositor defined):AID2013, AID2026]; format: functional
[23] = target: T9, Cannabinoid receptor 1; assay: SAR analysis of agonists of the Cannabinoid Receptor 1 using an Image-Based Assay - Set 2. [Related pubchem assays (depositor defined):AID2013, AID2026]; format: functional
[24] = off-target signal loss in HeLa-CEM21 co-culture – HeLa F-luc CTL cells, cherry-picked, counter-screen for HIV-1 Env fusion inhibitor project, dose response (AID 652040); format: functional, cell-based;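 note: potency for signal decrease marking cytotoxic or nonspecific inhibition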
[25] = target: T7, G-protein coupled receptor 55; assay: SAR Analysis of Selective Antagonists of GPR55 using an Image-Based Assay - Set 4. [Related pubchem assays (depositor defined):AID2013, AID2026]; format: functional
[26] = target: T9, Cannabinoid receptor 1; assay: SAR analysis of agonists of the Cannabinoid Receptor 1 using an Image-Based Assay - Set 4. [Related pubchem assays (depositor defined):AID2013, AID2026]; format: functional
[27] = target: T6, Cannabinoid receptor 2; assay: SAR analysis of antagonists of the Cannabinoid Receptor 2 using an Image-Based Assay - Set 3. [Related pubchem assays (depositor defined):AID2013, AID2026]; format: functional
[28] = target: T5, G-protein coupled receptor 35; assay: SAR analysis of Antagonists of the GPR35 Receptor using an Image-Based Assay - Set 6. [Related pubchem assays (depositor defined):AID2013, AID2026]; format: functional
[29] = target: T6, Cannabinoid receptor 2; assay: SAR analysis of agonists of the Cannabinoid Receptor 2 using an Image-Based Assay - Set 3. [Related pubchem assays (depositor defined):AID2013, AID2026]; format: functional
[30] = target: T9, Cannabinoid receptor 1; assay: SAR analysis of antagonists of the Cannabinoid Receptor 1 using an Image-Based Assay - Set 4. [Related pubchem assays (depositor defined):AID2013, AID2026]; format: functional
[31] = target: T5, G-protein coupled receptor 35; assay: SAR analysis of Agonists of the GPR35 Receptor using an Image-Based Assay - Set 4. [Related pubchem assays (depositor defined):AID2013, AID2026]; format: functional

T7 sequence (Q9Y2T6 whole entry): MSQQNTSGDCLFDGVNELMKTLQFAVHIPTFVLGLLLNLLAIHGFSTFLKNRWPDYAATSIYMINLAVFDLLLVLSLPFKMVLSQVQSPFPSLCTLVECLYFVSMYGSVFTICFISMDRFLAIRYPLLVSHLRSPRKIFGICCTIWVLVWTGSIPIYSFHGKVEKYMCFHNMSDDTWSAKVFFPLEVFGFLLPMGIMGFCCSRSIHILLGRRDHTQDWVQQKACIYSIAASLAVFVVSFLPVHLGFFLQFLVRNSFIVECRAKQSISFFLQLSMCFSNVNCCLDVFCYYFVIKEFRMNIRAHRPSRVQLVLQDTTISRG
T5 sequence (Q9HC97 whole entry, the tested form may be a part): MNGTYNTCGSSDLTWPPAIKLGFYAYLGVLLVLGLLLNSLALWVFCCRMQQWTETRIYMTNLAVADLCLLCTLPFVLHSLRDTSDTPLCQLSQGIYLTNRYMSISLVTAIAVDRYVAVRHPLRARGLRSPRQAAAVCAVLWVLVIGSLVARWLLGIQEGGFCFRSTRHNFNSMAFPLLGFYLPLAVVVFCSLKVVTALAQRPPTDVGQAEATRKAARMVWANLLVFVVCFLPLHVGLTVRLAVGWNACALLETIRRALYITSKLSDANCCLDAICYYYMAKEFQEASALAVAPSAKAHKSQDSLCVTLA
T9 sequence (P21554 whole entry): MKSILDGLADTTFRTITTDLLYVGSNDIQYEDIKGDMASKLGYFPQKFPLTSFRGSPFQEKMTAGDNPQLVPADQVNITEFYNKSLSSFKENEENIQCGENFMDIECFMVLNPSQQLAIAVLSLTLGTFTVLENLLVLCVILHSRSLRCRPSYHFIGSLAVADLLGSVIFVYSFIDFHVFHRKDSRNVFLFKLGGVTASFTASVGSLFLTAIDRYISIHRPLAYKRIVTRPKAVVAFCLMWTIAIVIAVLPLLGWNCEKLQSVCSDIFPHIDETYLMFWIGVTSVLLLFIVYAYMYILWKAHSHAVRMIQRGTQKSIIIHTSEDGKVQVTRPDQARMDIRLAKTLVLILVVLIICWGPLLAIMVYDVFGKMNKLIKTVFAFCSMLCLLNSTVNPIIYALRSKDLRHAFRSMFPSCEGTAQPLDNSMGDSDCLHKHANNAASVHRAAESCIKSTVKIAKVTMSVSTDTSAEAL
T6 sequence (P34972 whole entry, the tested form may be a part): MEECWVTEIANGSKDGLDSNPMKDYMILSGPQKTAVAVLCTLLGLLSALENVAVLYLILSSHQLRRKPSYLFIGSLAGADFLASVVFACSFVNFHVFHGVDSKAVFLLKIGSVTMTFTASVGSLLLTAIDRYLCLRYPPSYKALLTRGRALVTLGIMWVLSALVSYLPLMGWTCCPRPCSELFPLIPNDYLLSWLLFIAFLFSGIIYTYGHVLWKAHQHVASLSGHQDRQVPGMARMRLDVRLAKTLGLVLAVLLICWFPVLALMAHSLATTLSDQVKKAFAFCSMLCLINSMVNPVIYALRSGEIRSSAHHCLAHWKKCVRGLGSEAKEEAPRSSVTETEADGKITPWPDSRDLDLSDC
T2 sequence (P41143 whole entry): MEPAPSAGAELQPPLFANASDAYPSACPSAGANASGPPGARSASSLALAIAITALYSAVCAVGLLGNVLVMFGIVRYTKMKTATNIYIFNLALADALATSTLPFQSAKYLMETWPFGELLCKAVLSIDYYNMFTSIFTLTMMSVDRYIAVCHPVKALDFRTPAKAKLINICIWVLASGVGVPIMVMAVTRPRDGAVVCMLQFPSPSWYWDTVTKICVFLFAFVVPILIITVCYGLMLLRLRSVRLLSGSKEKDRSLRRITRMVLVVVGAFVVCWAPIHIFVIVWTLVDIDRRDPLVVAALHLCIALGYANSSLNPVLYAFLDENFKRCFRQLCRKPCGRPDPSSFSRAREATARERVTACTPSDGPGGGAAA
T4 sequence (P41145 whole entry): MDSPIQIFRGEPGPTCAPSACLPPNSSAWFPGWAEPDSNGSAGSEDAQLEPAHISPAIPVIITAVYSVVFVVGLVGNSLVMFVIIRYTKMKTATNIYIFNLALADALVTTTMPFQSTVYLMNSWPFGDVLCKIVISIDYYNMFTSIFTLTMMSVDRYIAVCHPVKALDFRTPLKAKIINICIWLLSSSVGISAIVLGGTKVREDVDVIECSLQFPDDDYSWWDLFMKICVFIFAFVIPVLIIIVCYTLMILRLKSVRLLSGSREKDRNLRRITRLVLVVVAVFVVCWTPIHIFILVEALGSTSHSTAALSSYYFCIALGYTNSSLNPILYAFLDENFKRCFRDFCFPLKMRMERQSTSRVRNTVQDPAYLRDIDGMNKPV
CAAX prenyl protease 2, sequence (Q03530 whole entry): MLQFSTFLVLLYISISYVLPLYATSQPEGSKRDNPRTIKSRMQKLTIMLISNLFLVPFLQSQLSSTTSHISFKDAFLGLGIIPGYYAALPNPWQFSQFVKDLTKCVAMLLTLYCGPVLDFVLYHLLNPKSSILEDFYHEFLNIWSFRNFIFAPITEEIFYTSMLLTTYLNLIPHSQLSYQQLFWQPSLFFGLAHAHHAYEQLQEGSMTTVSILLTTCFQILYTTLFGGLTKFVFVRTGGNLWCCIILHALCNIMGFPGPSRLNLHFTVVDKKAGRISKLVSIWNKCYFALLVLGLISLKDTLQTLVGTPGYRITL
Beta-galactosidase, sequence (Q8VNN2 whole entry): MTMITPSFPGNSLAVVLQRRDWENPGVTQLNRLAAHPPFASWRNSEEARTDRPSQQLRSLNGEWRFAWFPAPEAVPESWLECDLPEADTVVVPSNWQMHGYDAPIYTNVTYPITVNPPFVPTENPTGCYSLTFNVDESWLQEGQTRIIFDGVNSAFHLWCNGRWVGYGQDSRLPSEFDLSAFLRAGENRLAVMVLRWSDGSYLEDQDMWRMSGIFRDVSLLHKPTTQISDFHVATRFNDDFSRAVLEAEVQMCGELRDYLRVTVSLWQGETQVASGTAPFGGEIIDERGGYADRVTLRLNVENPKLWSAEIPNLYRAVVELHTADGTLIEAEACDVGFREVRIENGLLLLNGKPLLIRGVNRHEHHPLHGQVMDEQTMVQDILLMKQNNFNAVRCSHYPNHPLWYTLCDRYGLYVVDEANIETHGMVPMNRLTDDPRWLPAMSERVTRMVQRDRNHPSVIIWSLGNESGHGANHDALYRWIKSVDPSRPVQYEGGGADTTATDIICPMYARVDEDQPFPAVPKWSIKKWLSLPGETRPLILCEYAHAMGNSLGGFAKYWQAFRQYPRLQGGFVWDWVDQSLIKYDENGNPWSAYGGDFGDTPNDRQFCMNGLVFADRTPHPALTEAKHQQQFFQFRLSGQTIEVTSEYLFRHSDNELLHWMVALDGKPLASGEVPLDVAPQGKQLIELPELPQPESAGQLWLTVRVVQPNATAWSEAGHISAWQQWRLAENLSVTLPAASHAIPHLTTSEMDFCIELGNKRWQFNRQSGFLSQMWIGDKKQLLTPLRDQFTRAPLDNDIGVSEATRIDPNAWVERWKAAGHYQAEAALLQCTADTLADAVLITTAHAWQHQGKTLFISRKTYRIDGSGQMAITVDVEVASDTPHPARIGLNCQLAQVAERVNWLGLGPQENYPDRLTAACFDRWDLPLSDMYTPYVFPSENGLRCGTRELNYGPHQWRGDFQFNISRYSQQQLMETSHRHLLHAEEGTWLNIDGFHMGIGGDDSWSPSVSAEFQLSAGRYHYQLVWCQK
Mu-type opioid receptor, sequence (P35372 whole entry): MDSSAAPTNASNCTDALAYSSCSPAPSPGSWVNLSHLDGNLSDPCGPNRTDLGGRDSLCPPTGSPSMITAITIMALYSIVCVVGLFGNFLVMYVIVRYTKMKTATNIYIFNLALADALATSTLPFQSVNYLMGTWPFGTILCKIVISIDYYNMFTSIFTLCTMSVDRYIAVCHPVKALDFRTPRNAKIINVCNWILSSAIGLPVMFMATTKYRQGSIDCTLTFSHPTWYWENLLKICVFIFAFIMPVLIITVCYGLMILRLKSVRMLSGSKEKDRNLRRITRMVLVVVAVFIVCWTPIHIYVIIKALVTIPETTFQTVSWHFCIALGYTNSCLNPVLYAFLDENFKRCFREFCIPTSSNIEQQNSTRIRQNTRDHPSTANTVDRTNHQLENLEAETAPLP

O=[N+]([O-])c1ccc2nc(Cl)nc(-c3ccccc3)c2c1
EC50 [1]: > 31.5 µM (inactive) | EC50 [2]: > 380 µM (inactive) | IC50 [3]: > 32 µM (inactive) | AC50 [4]: 134 µM (active) | EC50 [5]: > 32 µM (inactive) | IC50 [6]: 8.95 µM (active) | EC50 [7]: > 32 µM (inactive) | pIC50 [8]: 4.55

Cc1ccsc1/C=N/NC(=O)c1nnn(-c2nonc2N)c1C(C)C
AC50 [9]: 0.87 µM (active) | AC50 [10]: 67.6 µM (active)

CC1=CC(C)(C)N2C(=O)C3(SCC(=O)N3c3ccc(F)cc3)c3cc(C)cc1c32 (stereo unspecified)
EC50 [11]: > 32 µM (inactive) | AC50 [12]: 21.8 µM (active) | AC50 [13]: 1.13 µM (active) | EC50 [14]: > 32 µM (inactive) | AC50 [15]: 23.7 µM (active) | IC50 [16]: > 32 µM (inactive) | IC50 [17]: 4.09 µM (active) | Absolute IC50 (XBP1) [18]: < 10 µM | AC50 [19]: 53.1 µM (active) | IC50 [20]: 1.42 µM (active) | IC50 [21]: > 32 µM (inactive) | IC50 [22]: 6.41 µM (active) | EC50 [23]: > 32 µM (inactive) | AC50 [24]: 43.1 µM (active)

Cc1nc(N2CCN(C(=O)C3CCCCC3)CC2)c2c3c(sc2n1)CCCC3
IC50 [25]: 9.24 µM (active) | EC50 [26]: > 32 µM (inactive) | IC50 [27]: > 16.8 µM (inactive) | IC50 [28]: > 32 µM (inactive) | EC50 [29]: > 32 µM (inactive) | IC50 [30]: 3.05 µM (active) | EC50 [31]: > 32 µM (inactive)
